Patent publication US20260365656A1, “PYRAZOLE DERIVATIVE, AND PHARMACEUTICALLY ACCEPTABLE SALT, STEREOISOMER, PHARMACEUTICAL COMPOSITION AND USE THEREOF” (STARG (WUHAN) PHARMACEUTICAL TECHNOLOGY CO., LTD, priority 2023, published 2026)
Where a name gives a salt, the structure may show the parent alone. Blank lines part the entries; values can stand above or below the compound they belong to.

Assays:
[1] = biological target: T1, CDK1/cyclin B1 (Homo sapiens, UniProt P06493); assay: In Vitro CDK1/Cyclin B1 Enzyme Activity Assay (TR-FRET); format: biochemical; conditions: in words
T1 construct: purchased Carna Biosciences
T1 sequence (P06493 whole entry): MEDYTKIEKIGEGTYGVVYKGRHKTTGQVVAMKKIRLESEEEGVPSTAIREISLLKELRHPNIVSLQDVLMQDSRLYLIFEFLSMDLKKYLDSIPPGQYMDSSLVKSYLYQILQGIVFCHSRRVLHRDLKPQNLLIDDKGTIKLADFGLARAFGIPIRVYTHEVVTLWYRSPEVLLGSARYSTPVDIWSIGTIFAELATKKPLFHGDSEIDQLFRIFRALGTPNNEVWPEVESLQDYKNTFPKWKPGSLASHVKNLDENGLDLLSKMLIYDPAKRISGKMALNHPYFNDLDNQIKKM
T1 sequence (P14635 whole entry partner): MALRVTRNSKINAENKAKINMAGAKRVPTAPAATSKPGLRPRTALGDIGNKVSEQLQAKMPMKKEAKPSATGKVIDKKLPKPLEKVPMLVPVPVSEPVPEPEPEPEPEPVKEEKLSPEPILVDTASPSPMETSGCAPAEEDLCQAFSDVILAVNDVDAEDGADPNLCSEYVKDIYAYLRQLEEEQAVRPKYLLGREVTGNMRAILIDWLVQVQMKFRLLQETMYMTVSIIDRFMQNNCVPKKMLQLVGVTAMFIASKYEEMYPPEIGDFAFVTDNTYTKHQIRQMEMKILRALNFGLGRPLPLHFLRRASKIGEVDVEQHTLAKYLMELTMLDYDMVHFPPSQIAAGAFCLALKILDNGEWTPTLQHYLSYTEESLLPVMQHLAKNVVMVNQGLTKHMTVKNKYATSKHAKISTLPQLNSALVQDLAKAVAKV
Description: Experimental Example 2: In Vitro CDK1/Cyclin B1 Enzyme Activity Assay
CDK1/cyclin B1 was purchased from Carna Biosciences. Ulight-4E-BP1 peptide, Eu-anti-phospho-tyrosine antibody, and 1× detection buffer were purchased from PerkinElmer. High-purity ATP was purchased from Promega. EDTA was purchased from Sigma. Nivo multimode plate reader (PerkinElmer) was used.
Preparation of Kinase Buffer Solution: The kinase buffer solution consisted 50 mM HEPES, 1 mM EDTA, 10 mM MgCl2, and 0.01% Brij-35, with pH of 7.4. 2.38 g HEPES, 58 mg EDTA, 406 mg MgCl2, and 20 mg Brij-35 were added to 200 mL buffer, and the pH was adjusted to 7.4.
The stop solution was prepared by mixing 100 μL of 1 M EDTA stock solution with 0.625 μL of 1× detection buffer solution and 1725 μL of distilled water.
The enzyme, Ulight-4E-BP1 peptide, ATP, and the inhibitor were diluted using the kinase buffer solution.
The Eu-anti-phospho-tyrosine antibody was diluted to a concentration of 8 nM/L using the detection buffer solution.
The test compound was serially diluted 5-fold using a multichannel pipette to the 8th concentration, i.e., from 4 μM to 0.0512 nM. The final concentration of DMSO was 4%, and the experiment was set up with duplicate wells. 2.5 μL of each gradient concentration of the inhibitor, 5 μL of CDK1/cyclin B1 enzyme (0.5 ng), and 2.5 μL of a mixture of substrate and ATP (4 mM ATP, 200 nM Ulight-4E-BP1 peptide) were added to a microplate, resulting in a final concentration gradient of the compound from 1 μM to 0.0128 nM, with final ATP and substrate concentrations of 1 mM and 50 nM, respectively. The reaction system was incubated at 25 °C for 60 minutes. After the reaction, 5 μL of the stop solution was added to each well, and further reacted at 25 °C for 5 minutes to terminate the reaction. Then 5 μL of Eu-anti-phospho-tyrosine antibody dilution was added to each well, and the mixture was incubated at 25 °C for 60 minutes. Data were collected using the PerkinElmer Nivo multimode plate reader in TR-FRET mode (excitation wavelength: 320 nm; emission wavelengths: 615 nm and 665 nm).
The raw data were converted to inhibition rates using the equation (Sample−Min)/(Max−Min)×100%. The IC50 value was obtained by fitting the data to a four-parameter curve (using log(inhibitor) vs. response—Variable slope model in GraphPad Prism). Table 1 provides the enzyme inhibitory activity of the compounds of the present application against CDK1/cyclin B1.

[2] = Pharmacokinetic Study of Test Compounds Administered Orally and Intravenously in Mice; format: in vivo, mouse (ICR, male); conditions: ICR mice
Excerpt: Experimental Example 5: Pharmacokinetic Study of Test Compounds Administered Orally and Intravenously in Mice
This study used ICR male mice as test animals. The plasma concentrations of the test compounds and the reference compound in mice were quantitatively determined at different time points using the LC-MS/MS method following intravenous injection or oral administration to evaluate the pharmacokinetic characteristics of the test compounds in mice.
ICR mice (male, 20-30 g, 6-8 weeks old, Beijing Charles River).
A clear solution of the test compound was administered to ICR mice (fasted overnight or fed) via tail vein injection or oral gavage. For intravenous injection, blood samples (50 μL) were collected via cheek puncture at 0 h (pre-dose) and at 0.083, 0.25, 0.5, 1, 2, 4, 6, 8, and 24 h post-dose into anticoagulant tubes containing sodium heparin. The mixtures were thoroughly vortexed at 4 °C and centrifuged at 6000 rpm for 3 minutes. For oral gavage, blood samples were collected via cheek puncture at 0 h (pre-dose) and at 0.083, 0.25, 1, 2, 4, 6, 8, and 24 h post-dose into anticoagulant tubes containing sodium heparin. The mixtures were vortexed thoroughly, and centrifuged at 6000 rpm for 3 minutes. Plasma drug concentrations were determined using the LC-MS/MS method. Pharmacokinetic parameters were calculated using Phoenix WinNonlin 8.2.0 pharmacokinetic software with a non-compartmental model and linear-logarithmic trapezoidal rule.

Compound: CONCc1nn2ccnc(Nc3cc([C@H]4CC[C@@H](OC(=O)NC(C)C)C4)[nH]n3)c2c1C [Formate salt of compound 1]
selectivity for CDK2 over CDK1 compared to PF-07104091 [1]: superior selectivity compared to PF-07104091

Compound: CNOCc1nn2ccnc(Nc3cc([C@H]4CC[C@@H](OC(=O)NC(C)C)C4)[nH]n3)c2c1F [Hydrochloride salt of Compound 7]
selectivity for CDK2 over CDK1 compared to PF-07104091 [1]: superior selectivity compared to PF-07104091

Compound: CON(C)Cc1nn2ccnc(Nc3cc([C@H]4CC[C@@H](OC(=O)NC(C)C)C4)[nH]n3)c2c1C [Formate salt of compound 2]
selectivity for CDK2 over CDK1 compared to PF-07104091 [1]: superior selectivity compared to PF-07104091

Compound: CONCc1nn2ccnc(Nc3cc([C@H]4CC[C@@H](OC(=O)NC(C)C)C4)[nH]n3)c2c1F [Compound 5]
selectivity for CDK2 over CDK1 compared to PF-07104091 [1]: superior selectivity compared to PF-07104091

Apparent volume of distribution Vdss ([2]; intravenous, 5 mg/Kg): 11.8 L/kg | Area under plasma concentration-time curve AUC0-last ([2]; intravenous, 5 mg/Kg): 1645 ng·h/mL | Clearance CL ([2]; intravenous, 5 mg/Kg): 50.3 mL/min/kg | Half-life T1/2 ([2]; intravenous, 5 mg/Kg): 2.68 h | Bioavailability F ([2]; oral 30 mg/Kg vs intravenous 5 mg/Kg): 76.2% | Area under plasma concentration-time curve AUC0-last ([2]; oral, 30 mg/Kg): 7524 ng·h/mL | Peak concentration Cmax ([2]; oral, 30 mg/Kg): 6317 ng/mL | Time to peak Tmax ([2]; oral, 30 mg/Kg): 0.25 h
Compound: COCc1cc(C(=O)Nc2cc([C@H]3CC[C@@H](OC(=O)NC(C)C)C3)[nH]n2)n(C)n1 [PF-07104091]

Compound: CON(C)Cc1nn2ccnc(Nc3cc([C@H]4CC[C@@H](OC(=O)NC(C)C)C4)[nH]n3)c2c1F [Compound 6]
selectivity for CDK2 over CDK1 compared to PF-07104091 [1]: superior selectivity compared to PF-07104091

Compound: CNOCc1nn2ccnc(Nc3cc([C@H]4CC[C@@H](OC(=O)NC(C)C)C4)[nH]n3)c2c1C [Hydrochloride salt of compound 3]
selectivity for CDK2 over CDK1 compared to PF-07104091 [1]: superior selectivity compared to PF-07104091
